From patent US20170008888A1 (KYORIN PHARMACEUTICAL CO., LTD., priority 2014, published 2017)
Where two headings read alike, the source gives them in different places.

Key:
[1] = system: collagen-induced arthritis mouse model; test: Collagen-induced arthritis (CIA) mouse model: in-life disease score, paw thickness; type: in vivo, mouse (DBA/1J); conditions: for change in group average disease score - mean, Day versus Day 21 (start of treatment): 60 mg/kg PO BID from D21
[2] = system: primary human keratinocytes; test: IL-17A-stimulated cytokine response by primary human keratinocytes; type: cell-based; conditions: Keratinocyte, 200 ng/ml IL-17A, 48 h
Experimental: Primary human keratinocytes were obtained from Life Technologies (Grand Island, N.Y.) and maintained in growth supplemented Defined Keratinocyte-SFM Medium (Life Technologies). Cells were seeded at 2.5e4 cells/ml onto collagen-coated plates and incubated at 37° C. in a humidified atmosphere at 5% CO2 until the cells reached confluence. Cells were pre-treated with test compounds (10 μM down by ⅕ in a 4-point serial dilution series) for 1 h at 37° C. in a humidified atmosphere at 5% CO2. DMSO at a final concentration of 0.1% served as the non-inhibited control. Cells were then stimulated with 200 ng/ml human recombinant IL-17A (eBioscience, San Diego, Calif.) for 48 h. Supernatant was collected and analyzed for cytokine concentrations using the Human Inflammatory Magnetic 5-Plex Panel from Life Technologies according to the manufacturer's instructions. Magnetic beads were measured on the Bio-Plex MAGPIX multiplex reader instrument using the accompanying xPONENT 4.2 acquisition software (Bio-Rad Laboratories, Hercules, Calif.). Data were analyzed via the Bio-Plex Manager software v6.1 (Bio-Rad Laboratories).

[3] = system: TLR4 signaling in primary human umbilical vein endothelial cells; test: Cytokine response to TLR4 agonism (LPS) in primary HUVEC (ELISA); type: cell-based
Experimental: In this example, the following commercially available inhibitors were tested:
The results were compared with test compound 61.
Pooled primary human umbilical vein endothelial cells (HUVEC) were obtained from Lonza (Allendale, N.J.) and maintained in either complete EGM-2 defined media (Lonza) or Medium 200 supplemented with Low Serum Growth Supplement (Life Technologies, Grand Island, N.Y.). Cells at low passage (<5) were seeded at 4e5 cells/ml and allowed to adhere overnight at 37° C. in a humidified atmosphere at 5% CO2. Cells were pre-treated with test compounds for 1 h prior to TLR2 or TLR4 stimulation. To test for the effects of TLR2 agonism, the TLR2 agonist peptide Pam3CysK4 (Santa Cruz Biotechnology, Dallas, Tex.) was used at 10 μg/ml. PHC-SKKK (Enzo Life Sciences, Farmingdale, N.Y.) served as the negative control peptide. To test for the effects of TLR4 agonism, LPS from E. coli 0111:B4 (EMD Millipore, Billerica, Mass.) was used at 100 ng/ml. Cells were incubated for 22 hr, after which the supernatant was collected and analyzed for cytokine concentrations by ELISA (Life Technologies). Absorbance at 450 nm was read using the Wallac 1420 Victor^2 multilabel microplate reader (Perkin Elmer, Waltham, Mass.).

[4] = system: MV-4-11 cells; test: MV-4-11 proliferation EC50 assay (CellTiter-Glo); type: cell-based; conditions: Homo sapiens, MV4-11, 48 h, read-out: MV-4-11 proliferation EC50, ave. ± S.D.
Experimental: Human biphenotypic B myelomonocytic leukemia MV-4-11 cells (ATCC, Manassas, Va.) were treated with test compounds at 2e5 cells/ml in IMDM medium containing 10% (v/v) FBS (Life Technologies, Grand Island, N.Y.) and 1×Pen/Strep Amphotericin B (Lonza, Allendale, N.J.). Compounds were tested at 25 μM down by ⅓ in a 9 point serial dilution series. Cells were incubated for 48 h at 37° C. in a humidified atmosphere at 5% CO2. MV-4-11 cell proliferation was then indirectly determined via cellular ATP content using the CellTiter-Glo® Luminescent Cell Viability Assay (Promega, Madison, Wis.) as per the manufacturer's instructions. Briefly, experimental plates were equilibrated at room temperature for 30 minutes. An equal volume of CellTiter-Glo® reagent was added to each well and incubated for 15 minutes at room temperature. Luminescent signal was read using the Wallac 1420 Victor^2 multilabel microplate reader (Perkin Elmer, Waltham, Mass.). EC50 values were determined using GraphPad Prism software v5.04.

In the case of `CCOc1cc(C(=O)N2CCC(N3CCCC3)CC2)ccc1Nc1cc2c(cn1)N(C)C(=O)c1ccccc1N2C` [Compound 46, 3-(2-Ethoxy-4-(4-(pyrrolidin-1-yl)piperidine-1-carbonyl)phenylamino)-5,11-dimethyl-5H-benzo[e]pyrido[3,4-b][1,4]diazepin-10(11H)-one], the “change in group average disease score - mean, Day versus Day 21 (start of treatment)” value (shortened to “change in group average disease score”) ([1]; Day 21) is reported as 0.0, the “change in group average disease score” value ([1]; Day 24) is reported as 0.4 and the “change in group average disease score” value ([1]; Day 26) is reported as 1.3. The “change in group average disease score” value ([1]; Day 28) was 2.0, the “change in group average disease score” value ([1]; Day 31) was 2.1 and the “change in group average disease score” value ([1]; Day 33) was 2.7. For the same molecule, the “change in group average disease score” value ([1]; Day 35) was 2.4, the “change in group average disease score” value ([1]; Day 37) was 2.7 and the “change in group average disease score” value ([1]; Day 39) was 2.8. The “percent reduction in overall disease and total paw scores” value ([1]; treatment Day 21-42, Tofacitinib 15 mg/kg BID PO, doses in Table 28) was “about 55%”.

Molecule `CCOc1cc(C(=O)N2CC[C@@H](N(C)C)C2)ccc1Nc1cc2c(cn1)N(C)C(=O)c1ccccc1N2C` [Compound 115] has an EC50 ([2]; read-out: Inhibition EC50 (μM), GM-CSF) of 2.18 µM, an EC50 ([2]; read-out: Inhibition EC50 (μM), IL-1β) of 0.5 µM and an EC50 ([2]; read-out: Inhibition EC50 (μM), IL-6) of 0.35 µM. The EC50 ([2]; read-out: Inhibition EC50 (μM), IL-8) was 0.46 µM and the EC50 ([2]; read-out: Inhibition EC50 (μM), TNF-α) was 1 µM.

For `CCOc1cc(C(=O)N2CCC(N3CCN(C)CC3)CC2)ccc1Nc1cc2c(cn1)N(C)C(=O)c1ccccc1N2C` [Compound 61], the “G-CSF” value ([3]; 5 μM inhibitor, +100 ng/ml LPS) was 14 ± 5 pg/mL, the “IL-6” value ([3]; 5 μM inhibitor, +100 ng/ml LPS) was 113 ± 14 pg/mL and the “IL-8” value ([3]; 5 μM inhibitor, +100 ng/ml LPS, 22 hr) was 1105 ± 25 pg/mL. The “G-CSF” value ([3]; 5 μM inhibitor, No Stimulation) was 0 ± 25 pg/mL, the “IL-6” value ([3]; 5 μM inhibitor, No Stimulation) was 7 ± 1 pg/mL and the “G-CSF response to TLR4 agonism, in words” value ([3]; summary of Table 23) was “reduced the G-CSF response”. For the same molecule, the “IL-6 response, in words” value ([3]; summary of Table 24) was “reduced” and the EC50 [4] was 0.7 ± 0.05 µM.
